Where “and” joins values, the source holds several entries; their conditions need not be identical. Equal values may be shown once. Where a name gives a salt, the structure may show the parent alone.
Key:
[1] = Stability studies on guanfacine prodrugs in buffers; format: physicochemical
[2] = Comparative bioavailability study of guanfacine in monkeys given guanfacine or guanfacine prodrug; format: in vivo, monkey; conditions: for Prodrug Cmax: monkeys, 0.5 mg/kg guanfacine free base equivalents; for Cmax: monkey, plasma, po, 0.5 mg/kg
Procedure: Blood samples were taken at various times after administration and submitted to analysis for the parent drug and prodrug using a qualified LC-MS-MS assay. The following pharmacokinetic parameters derived from the plasma analytical data were determined using Win Nonlin;

rat = experiment: Elevated Plus-Maze Test in the rat; format: in vivo
Text: The method, which detects anxiolytic activity, follows that described by Handley and Mithani (Naunyn. Schmied. Arch. Pharmacol., 327, 1-5, 1984). Rodents avoid open spaces (the open arms of an elevated plus-maze). The percentage of time spent on the open arms and the number of entries in the open arms are considered to be the best measures of anxiety (File, S. E. 1991. Animal models of anxiety. In Biological Psychiatry (G. Racagni, N. Brunello, and T. Fukuda, eds.) pp. 596-599. Elsevier, New York.).
Anxiolytics increase exploratory activity in the open arms, as indicated by increased time spent on the open arms and/or by increased % open-arm entries.

rat GIT transit = experiment: Charcoal propulsion test (gut motility) in rat; format: in vivo; conditions: oral; for % inhibition of rat GIT transit: 60 min before charcoal
Procedure: The effect of a drug on gut motility can be studied by means of the charcoal propulsion test.
The method used was based on that described by Takemori et al. (J. Pharmacol. Exp. Ther. 169:39, 1969). Test treatments were administered orally 60 minutes prior to an oral dose of a 10% suspension of charcoal in 2.5% gum Arabic (2 ml/kg). Twenty minutes after dosing with charcoal, the rats were sacrificed and the entire gastrointestinal tract was removed quickly and carefully. The distance that the charcoal meal had traveled toward the caecum was measured and expressed as a percentage of the total gut length.

[3] = as early as; cited from earlier work
[4] = pH 1.2, 37° C., 0.1M HCl/NaCl buffer, 1 h
[5] = pH 1.2, 37° C., 0.1M HCl/NaCl buffer, time 0
[6] = pH 3.0, 20° C., 0.1M citrate buffer, 2 h
[7] = pH 3.0, 20° C., 0.1M citrate buffer, time 0
[8] = pH 6.8, 37° C., 0.1M phosphate buffer, 2 h
[9] = pH 6.8, 37° C., 0.1M phosphate buffer, time 0
[10] = pH 7.4, 37° C., 0.1M phosphate buffer, 2 h
[11] = pH 7.4, 37° C., 0.1M phosphate buffer, time 0
[12] = DMSO, organic solvent or mixture, Solubility, in DMSO
[13] = water/CH3CN (1:1), aqueous with cosolvent or surfactant or cyclodextrin, Solubility, in water/CH3CN (1:1)
[14] = pH 7.4, 37° C., 0.1M phosphate buffer, 2 h, listed as Guanfacine (2-Hydroxyethyl) Carbamate
[15] = pH 1.2, 37° C., 0.1M HCl/NaCl buffer, 1 h, Hydrochloride

| SMILES | Active drug [1, 4] | Active drug [1, 5] | Pro-drug [1, 5] | Active drug [1, 6] | Active drug [1, 7] | Pro-drug [1, 7] | Active drug [1, 8] | Active drug [1, 9] | Pro-drug [1, 9] | Active drug [1, 10] | Active drug [1, 11] | Pro-drug [1, 11] | Prodrug Cmax [2] | solubility (Solubility; [12]) | solubility (Solubility; water, Solubility, in water) | solubility (Solubility; [13]) | also measured |
| --- | --- | --- | --- | --- | --- | --- | --- | --- | --- | --- | --- | --- | --- | --- | --- | --- | --- |
| CCCCOC(=O)NC(N)=NC(=O)Cc1c(Cl)cccc1Cl.Cl [Compound 6, 1-{N′-[2-(2,6-Dichloro-phenyl)-acetyl]-guanidinocarbonyloxy}butane Hydrochloride] | 0.0 | 0.0 | 100 | 0.0 | 0.0 | 100 | 0.0 | 0.0 | 100 | 0.0 | 0.0 | 100 | BLQ | > 10000 µg/mL | < 1000 µg/mL | > 1000 µg/mL | Pro-drug [1, 4]: 94.0; Pro-drug ([1]; pH 3.0, 20° C., 0.1M citrate buffer, 2 h, listed as Guanfacine N-Butyl Carbamate Hydrochloride, Hydrochloride): 94.6 and 94.9; Pro-drug ([1]; pH 6.8, 37° C., 0.1M phosphate buffer, 2 h, listed as Guanfacine N-Butyl Carbamate Hydrochloride, Hydrochloride): 90.9 and 90.7; Pro-drug ([1]; pH 7.4, 37° C., 0.1M phosphate buffer, 2 h, listed as Guanfacine N-Butyl Carbamate Hydrochloride, Hydrochloride): 90.7 and 91.0 |
| CCC(C)OC(=O)NC(N)=NC(=O)Cc1c(Cl)cccc1Cl.Cl (stereo not drawn) [Compound 7, 2-{N′-[2-(2,6-Dichloro-phenyl)-acetyl]-guanidinocarbonyloxy}-butane Hydrochloride] | 0.0 | 0.0 | 100 | 0.0 | 0.0 | 100 | 0.0 | 0.0 | 100 | 0.0 | 0.0 | 100 |  |  |  |  | Pro-drug [1, 4]: 95.9; Pro-drug ([1]; pH 3.0, 20° C., 0.1M citrate buffer, 2 h, listed as Guanfacine 2-Butanol Carbamate Hydrochloride, Hydrochloride): 98.7 and 98.9; Pro-drug [1, 8]: 93.4; Pro-drug ([1]; pH 7.4, 37° C., 0.1M phosphate buffer, 2 h, listed as Guanfacine 2-Butanol Carbamate Hydrochloride, Hydrochloride): 93.4 and 93.6; solubility (physchem; organic solvent or mixture): > 10000 µg/mL; solubility (physchem; water): < 1000 µg/mL |
| CC(C)OC(=O)NC(N)=NC(=O)Cc1c(Cl)cccc1Cl.Cl [Compound 5, 2-{N′-[2-(2,6-Dichloro-phenyl)acetyl]-guanidinocarbonyloxy}propane Hydrochloride] |  |  |  |  |  |  |  |  |  |  |  |  | BLQ | > 10000 µg/mL | < 1000 µg/mL |  | solubility (Solubility; 3.0 mL CH3CN/3.0 mL H2O, aqueous with cosolvent or surfactant or cyclodextrin, Solubility, in 3.0 mL CH3CN/3.0 mL H2O): > 833 µg/mL |
| NC(=NC(=O)Cc1c(Cl)cccc1Cl)NC(=O)OCCO [Compound 19, 2-{N′-[2-(2,6-Dichloro-phenyl)-acetyl]-guanidinocarbonyloxy}ethanol] | 0.5 | 0.0 | 100 | 0.4 | 0.0 | 100 | 9.8 | 0.0 | 100 |  | 0.0 | 100 |  | > 10000 µg/mL | < 1000 µg/mL | > 10000 µg/mL | Pro-drug ([1]; pH 1.2, 37° C., 0.1M HCl/NaCl buffer, 1 h, listed as Guanfacine (2-Hydroxyethyl) Carbamate): 91.4 and 91.5; Pro-drug [1, 6]: 98.0; Pro-drug ([1]; pH 6.8, 37° C., 0.1M phosphate buffer, 2 h, listed as Guanfacine (2-Hydroxyethyl) Carbamate): 87.4 and 87.5; Active drug [1, 14]: 22.6 and 22.3; Pro-drug [1, 14]: 72.5 and 73.0; Cmax [2]: 60.8 ng/mL; Change in time spent in the open arms (rat; 10 mg/kg, NS): +69%; Change in percent of entries in open arms (rat; 10 mg/kg, p<0.05): +87%; Efficacy in the Elevated Plus-Maze Test (rat; rat): efficacious |
| NC(=NC(=O)Cc1c(Cl)cccc1Cl)NC(=O)OCCCO [Compound 22, 3-{N′-[2-(2,6-Dichloro-phenyl)-acetyl]-guanidinocarbonyloxy}propan-1-ol] | 0.0 | 0.0 | 100 | 0.0 | 0.0 | 100 | 0.0 | 0.0 | 100 | 0.0 | 0.0 | 100 |  | > 10000 µg/mL | < 1000 µg/mL | > 10000 µg/mL | Pro-drug ([1]; pH 1.2, 37° C., 0.1M HCl/NaCl buffer, 1 h, listed as Guanfacine (3-Hydroxypropyl) Carbamate): 94.8 and 94.9; Pro-drug ([1]; pH 3.0, 20° C., 0.1M citrate buffer, 2 h, listed as Guanfacine (3-Hydroxypropyl) Carbamate): 98.1 and 98.3; Pro-drug ([1]; pH 6.8, 37° C., 0.1M phosphate buffer, 2 h, listed as Guanfacine (3-Hydroxypropyl) Carbamate): 99.2 and 99.7; Pro-drug [1, 10]: 98.2; Cmax [2]: 3.49 ng/mL |
| N=C(N)NC(=O)Cc1c(Cl)cccc1Cl [Guanfacine, N-Amidino-2-(2,6-dichlorophenyl)acetamide monohydrochloride, reference compound] |  |  |  |  |  |  |  |  |  |  |  |  |  |  |  |  | % inhibition of rat GIT transit (rat GIT transit; dose 00.1 mg/kg (guanfacine free base equivalents)): 41%; % inhibition of rat GIT transit (rat GIT transit; dose 00.3 mg/kg (guanfacine free base equivalents)): 56%; Reduction in the distance traveled by the charcoal plug within 20 minutes, compared to control group (rat GIT transit; 0.1 mg base/kg): about 41%; Time after dosing at which peak plasma drug levels are reached [3]: ≥ 1 h |
| CCCOC(=O)NC(N)=NC(=O)Cc1c(Cl)cccc1Cl.Cl [Compound 4, 1-{N′-[2-(2,6-Dichloro-phenyl)acetyl]-guanidinocarbonyloxy}propane Hydrochloride] | 0.0 | 0.0 | 100 | 0.0 | 0.0 | 100 | 0.0 | 0.0 | 100 | 0.0 | 0.0 | 100 | BLQ | > 10000 µg/mL | < 1000 µg/mL | > 1000 µg/mL | Pro-drug ([1]; pH 1.2, 37° C., 0.1M HCl/NaCl buffer, 1 h, listed as Guanfacine N-Propyl Carbamate Hydrochloride, Hydrochloride): 94.4 and 94.6; Pro-drug ([1]; pH 3.0, 20° C., 0.1M citrate buffer, 2 h, listed as Guanfacine N-Propyl Carbamate Hydrochloride, Hydrochloride): 94.0 and 94.4; Pro-drug ([1]; pH 6.8, 37° C., 0.1M phosphate buffer, 2 h, listed as Guanfacine N-Propyl Carbamate Hydrochloride, Hydrochloride): 95.8 and 96.4; Pro-drug ([1]; pH 7.4, 37° C., 0.1M phosphate buffer, 2 h, listed as Guanfacine N-Propyl Carbamate Hydrochloride, Hydrochloride): 96.3 and 96.0 |
| CCSC(=O)NC(N)=NC(=O)Cc1c(Cl)cccc1Cl.Cl [Compound 30, Guanfacine Ethanethiol Carbamate Hydrochloride] |  | 0.0 | 100 | 0.0 | 0.0 | 100 | 0.0 | 0.0 | 100 | 0.0 | 0.0 | 100 | BLQ |  |  |  | Active drug [1, 15]: 10.1 and 11.0; Pro-drug [1, 15]: 81.0 and 80.4; Pro-drug ([1]; pH 3.0, 20° C., 0.1M citrate buffer, 2 h, Hydrochloride): 85.6 and 84.8; Pro-drug ([1]; pH 6.8, 37° C., 0.1M phosphate buffer, 2 h, Hydrochloride): 93.0 and 92.5; Pro-drug ([1]; pH 7.4, 37° C., 0.1M phosphate buffer, 2 h, Hydrochloride): 94.5 and 95.2; solubility (Solubility; in DMSO): > 10000 µg/mL; solubility (Solubility; in water): < 1000 µg/mL; solubility (Solubility; in water/CH3CN (1:2)): > 5000 µg/mL |
